Data from the supplement of paper PMC10307832.

Assays:
Experiment in all cases: relative viability (nuclei count vs DMSO), 5 days (fraction); higher = more cells survive
[1] = compound: CC1CC(=O)N(C2=CN=C(N=C2N1C3CCCC3)NC4=C(C=C(C=C4)C(=O)NC5CCN(CC5)C)OC)C [NPK76-II-72-1] + CS(=O)(=O)CCNCc1ccc(-c2ccc3ncnc(Nc4ccc(OCc5cccc(F)c5)c(Cl)c4)c3c2)o1 [Lapatinib] (partner 2 µM)
Summary of the method: (§1)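 Nuclei were stained with Hoechst during a one-step fixation (final 0.05% Triton X-100, 1% formaldehyde, 1 ug/ml Hoechst) carried out 5 days after dosing, then counted on 4× images. The cells, lung cancer lines in 1536-well plates, had been dosed by pin tool the day after seeding with one drug alone or a fixed anchor-drug dose plus five library-drug doses (not always all listed) in √10 steps. Relative viability is the nuclei count in treated wells divided by that in vehicle wells, and each value is the median of duplicate plates.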

[2] = compound: CC1CC(=O)N(C2=CN=C(N=C2N1C3CCCC3)NC4=C(C=C(C=C4)C(=O)NC5CCN(CC5)C)OC)C [NPK76-II-72-1] + Cc1cc(Nc2cc(N3CCN(C)CC3)nc(Sc3ccc(NC(=O)C4CC4)cc3)n2)n[nH]1 [Tozasertib] (partner 0.1 µM)
Summary of the method: as §1

NPK76-II-72-1 + Olaparib = compound: CC1CC(=O)N(C2=CN=C(N=C2N1C3CCCC3)NC4=C(C=C(C=C4)C(=O)NC5CCN(CC5)C)OC)C [NPK76-II-72-1] + O=C(c1cc(Cc2n[nH]c(=O)c3ccccc23)ccc1F)N1CCN(C(=O)C2CC2)CC1 [Olaparib] (partner 8 µM)
Summary of the method: as §1

[3] = compound: CC1CC(=O)N(C2=CN=C(N=C2N1C3CCCC3)NC4=C(C=C(C=C4)C(=O)NC5CCN(CC5)C)OC)C [NPK76-II-72-1] + CC(C)C[C@H](NC(=O)[C@H](Cc1ccccc1)NC(=O)c1cnccn1)B(O)O [Bortezomib] (partner 0.002 µM)
Summary of the method: as §1

Row | Cell Line | relative viability ([1]; first compound 0.01 µM) | relative viability ([1]; first compound 0.03162 µM) | relative viability ([1]; first compound 0.1 µM) | relative viability ([1]; first compound 0.3162 µM) | relative viability ([1]; first compound 1 µM) | relative viability ([2]; first compound 0.01 µM) | relative viability ([2]; first compound 0.03162 µM) | relative viability ([2]; first compound 0.1 µM) | relative viability ([2]; first compound 0.3162 µM) | relative viability ([2]; first compound 1 µM) | relative viability (NPK76-II-72-1 + Olaparib; first compound 0.01 µM) | relative viability (NPK76-II-72-1 + Olaparib; first compound 0.03162 µM) | relative viability (NPK76-II-72-1 + Olaparib; first compound 0.1 µM) | relative viability (NPK76-II-72-1 + Olaparib; first compound 0.3162 µM) | relative viability (NPK76-II-72-1 + Olaparib; first compound 1 µM) | relative viability ([3]; first compound 0.01 µM) | relative viability ([3]; first compound 0.03162 µM) | relative viability ([3]; first compound 0.1 µM) | relative viability ([3]; first compound 0.3162 µM) | relative viability ([3]; first compound 1 µM)
1 | NCI-H1944 | 0.81 | 0.808 | 0.904 | 0.825 | 0.71 | 0.255 | 0.283 | 0.245 | 0.228 | 0.257 | 0.429 | 0.438 | 0.409 | 0.43 | 0.404 |  |  |  |  | 
2 | NCI-H1793 | 0.64 | 0.91 | 0.823 | 0.503 | 0.751 | 0.34 | 0.377 | 0.36 | 0.263 | 0.369 |  | 0.985 | 1.02 | 0.589 | 0.808 |  |  |  |  | 
3 | A549 | 0.881 | 1.11 | 0.963 | 0.869 | 1.07 |  |  |  |  |  | 0.215 | 0.387 | 0.356 | 0.269 | 0.417 |  |  |  |  | 
4 | NCI-H358 | 0.444 | 0.443 | 0.549 | 0.453 | 0.477 | 0.108 | 0.11 | 0.0907 |  | 0.115 | 0.58 | 0.665 | 0.598 |  | 0.686 |  |  |  |  | 
5 | NCI-H1563 | 0.976 | 1.03 | 0.946 | 0.942 | 1.02 |  |  |  |  |  |  |  |  |  |  | 0.883 | 0.861 | 0.712 | 0.883 | 0.879
6 | NCI-H1395 | 1.1 | 1.11 | 1.09 | 1.03 | 1.07 | 0.726 | 0.822 | 0.72 | 0.767 | 0.759 | 0.459 | 0.45 | 0.493 | 0.477 | 0.466 |  |  |  |  | 
7 | SW 900 |  |  |  |  |  | 0.675 | 0.524 | 0.482 | 0.536 | 0.644 | 0.805 | 0.908 | 0.739 | 0.743 | 0.982 |  |  |  |  | 
8 | IA-LM | 0.786 | 0.877 | 0.804 | 0.785 | 1.03 |  |  |  |  |  | 0.811 | 0.825 | 0.766 | 0.788 | 0.847 | 0.738 | 0.798 | 0.871 | 0.933 | 0.857
9 | NCI-H1703 | 1.16 | 1.2 | 1.21 | 1.05 | 1.2 |  |  |  |  |  | 0.473 | 0.54 | 0.381 | 0.33 | 0.431 | 0.255 | 0.316 | 0.323 | 0.318 | 0.348
10 | NCI-H441 |  |  |  |  |  | 0.825 | 0.659 | 0.635 | 0.619 | 0.721 | 0.476 | 0.598 | 0.648 | 0.589 | 0.573 | 0.872 | 0.312 | 0.319 | 0.527 | 0.451
11 | LCLC-103H |  |  |  |  |  | 0.46 | 0.508 | 0.437 | 0.466 | 0.488 |  | 0.744 | 0.74 | 0.796 | 0.759 | 1.03 | 1.02 | 0.994 | 0.984 | 1.09
12 | NCI-H1648 |  |  |  |  |  | 0.523 | 0.431 |  |  | 0.474 | 0.535 | 0.891 | 0.567 | 0.889 | 1.05 |  |  |  |  | 
